Each structure is given as a SMILES string.

The Kb is the affinity of an antagonist, worked out from how it opposes an agonist.

The target of this assay is T1, human orexin-2 (hOX2) receptor (Homo sapiens, UniProt O43614).
T1 construct: expressed in transfected cells
T1 sequence (O43614 1-444): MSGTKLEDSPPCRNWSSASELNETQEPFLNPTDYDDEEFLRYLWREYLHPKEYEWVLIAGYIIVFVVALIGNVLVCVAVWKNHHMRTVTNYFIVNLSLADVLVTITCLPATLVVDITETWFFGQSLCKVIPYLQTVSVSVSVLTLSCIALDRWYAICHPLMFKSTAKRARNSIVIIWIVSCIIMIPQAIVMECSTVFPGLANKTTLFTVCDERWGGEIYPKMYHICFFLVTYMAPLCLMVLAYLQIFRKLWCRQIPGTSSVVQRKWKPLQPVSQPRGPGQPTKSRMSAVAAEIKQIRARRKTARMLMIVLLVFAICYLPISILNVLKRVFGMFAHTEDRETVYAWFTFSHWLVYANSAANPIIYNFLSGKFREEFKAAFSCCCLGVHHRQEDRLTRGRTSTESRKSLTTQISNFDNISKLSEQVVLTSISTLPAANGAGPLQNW
In words: Intracellular Ca2+ mobilization assay (FLIPR), antagonism of orexin-A at EC80. The class given is cell-based. To be noted: CHO(dHFr-) cells stably expressing hOX2; orexin-A at EC80 as agonist; antagonist applied 25 min before; Kb=IC50/(1+[A]/EC50); read-out: Kb (μM) OX2R (human). Here is the method: Intracellular Ca^2+ Mobilization Assay
The Chinese Hamster Ovary (dHFr-) mutant cell line stably expressing human orexin-1 (hOX1) or human orexin-2 (hOX2) receptors were maintained in Dulbecco's Modified Eagle Medium (1×) with GlutaMax™1, 4500 mg/L D-Glucose and Sodium Pyruvate (Catalog No. 31966-021, Invitrogen, Carlsbad, Calif.), 5% dialyzed fetal calf serum (Catalog No. 26400-044), 100 μg/ml penicillin and 100 μg/ml streptomycin. The cells were seeded at 5×10^4 cells/well in the poly-D-lysine treated, 96-well, black/clear-bottomed plates (Catalog No. BD356640, BD Biosciences, Palo Alto, Calif.). 24 h later, the cells were loaded for 1 h at 37° C. with 4 μM Flou-4 acetoxymethyl ester (Catalog No. F-14202, Molecular Probes, Eugene, Oreg.) in FLIPR buffer (1×HBSS, 20 mM HEPES, 2.5 mM Probenecid). Hanks' Balanced Salt Solution (HBSS) (10×) (catalog No. 14065-049) and HEPES (1M) (catalog No. 15630-056) were purchased from Invitrogen, Carlsbad, Calif. Probenecid (250 mM) (catalog No. P8761) was from Sigma, Buchs, Switzerland. The cells were washed five times with FLIPR buffer to remove excess dye and intracellular calcium mobilization, [Ca^2+]i were measured using a Fluorometric Imaging Plate Reader (FLIPR-96, Molecular Devices, Menlo Park, Calif.) as described previously (Malherbe et al., Mol. Pharmacol., 64, 823-832, 2003). Orexin A (catalog No. 1455, Toris Cookson Ltd, Bristol, UK) was used as agonist. Orexin A ([…] stock solution in DMSO) was diluted in FLIPR buffer+0.1% BSA. The EC50 and EC80 values of orexin-A were measured daily from standard agonist concentration-response curves in CHO(dHFr-)-OX1R and -OX2R cell lines. All compounds were dissolved in 100% DMSO. Inhibition curves were determined by addition of 11 concentrations (0.0001-10 μM) of inhibitory compounds and using EC80 value of orexin-A as agonist (a concentration which gave 80% of max agonist response, determined daily). The antagonists were applied 25 min (incubation at 37° C.) before the application of the agonist. Responses were measured as peak increase in fluorescence minus basal, normalized to the maximal stimulatory effect induced by EC80 value of orexin-A or orexin-B. Inhibition curves were fitted according to the Hill equation: y=100/(1+(x/IC50)^nH), where nH=slope factor using Excel-fit 4 software (Microsoft). Kb values were calculated according to the following equation Kb=IC50/(1+[A]/EC50) where A is the concentration of agonist added which is very close to agonist EC80 value, and IC50 and EC50 values were derived from the antagonist inhibition and orexin-A or B agonist curves, respectively.
Background: Calcium flux is commonly read through the fluorescence of an indicator in the cells.
`COc1cccc(OC)c1C(=O)N1CCC(CNc2nc3ccc(Cl)cc3o2)C1` (stereo not shown) [Example 1, {3-[(6-Chloro-benzooxazol-2-ylamino)-methyl]-pyrrolidin-1-yl}-(2,6-dimethoxy-phenyl)-methanone]: the antagonist dissociation constant (Kb) stood at 0.0292 µM.

On to `COc1cccc(OC)c1C(=O)N1CC[C@@H](CNc2nc3ccc(Cl)cc3o2)C1` [Example 2, {(S)-3-[(6-Chloro-benzooxazol-2-ylamino)-methyl]-pyrrolidin-1-yl}-(2,6-dimethoxy-phenyl)-methanone], for which the Kb was determined as 0.0573 µM.

With `O=C(c1ccccc1C(F)(F)F)N1CC[C@@H](CNc2nc3ccc(F)cc3s2)C1` [Example 3, {(S)-3-[(6-Fluoro-benzothiazol-2-ylamino)-methyl]-pyrrolidin-1-yl}-(2-trifluoromethyl-phenyl)-methanone], the Kb came out at 0.207 µM.

As for `O=C(c1ccccc1OC(F)(F)F)N1CC[C@@H](CNc2nc3ccc(F)cc3s2)C1` [Example 4, {(S)-3-[(6-Fluoro-benzothiazol-2-ylamino)-methyl]-pyrrolidin-1-yl}-(2-trifluoromethoxy-phenyl)-methanone], the Kb came to 0.129 µM.

As for `O=C(c1ccccc1OC(F)(F)C(F)F)N1CC[C@@H](CNc2nc3ccc(F)cc3s2)C1` [Example 5, {(S)-3-[(6-Fluoro-benzothiazol-2-ylamino)-methyl]-pyrrolidin-1-yl}-[2-(1,1,2,2-tetrafluoro-ethoxy)-phenyl]-methanone], the Kb turned out to be 0.0318 µM.

For the compound `Cc1ccc(C(F)(F)F)c(C(=O)N2CC[C@@H](CNc3nc4ccc(F)cc4s3)C2)c1` [Example 6, {(S)-3-[(6-Fluoro-benzothiazol-2-ylamino)-methyl]-pyrrolidin-1-yl}-(5-methyl-2-trifluoromethyl-phenyl)-methanone], the Kb is 0.115 µM.

Regarding `Cc1onc(-c2ccccc2)c1C(=O)N1CC[C@@H](CNc2nc3ccc(F)cc3s2)C1` [Example 7, {(S)-3-[(6-Fluoro-benzothiazol-2-ylamino)-methyl]-pyrrolidin-1-yl}-(5-methyl-3-phenyl-isoxazol-4-yl)-methanone], the antagonist dissociation constant (Kb) stood at 0.0623 µM.

Regarding `O=C(c1cnoc1-c1ccccc1)N1CC[C@@H](CNc2nc3ccc(F)cc3s2)C1` [Example 8, {(S)-3-[(6-Fluoro-benzothiazol-2-ylamino)-methyl]-pyrrolidin-1-yl}-(5-phenyl-isoxazol-4-yl)-methanone], the antagonist dissociation constant (Kb) came to 0.0829 µM.

As to `Cc1ccc(Cl)c(C(=O)N2CC[C@@H](CNc3nc4ccc(F)cc4s3)C2)c1` [Example 9, (2-Chloro-5-methyl-phenyl)-{(S)-3-[(6-fluoro-benzothiazol-2-ylamino)-methyl]-pyrrolidin-1-yl}-methanone], the Kb was determined as 0.337 µM.

Regarding `COc1ccc(C)cc1C(=O)N1CC[C@@H](CNc2nc3ccc(F)cc3s2)C1` [Example 10, {(S)-3-[(6-Fluoro-benzothiazol-2-ylamino)-methyl]-pyrrolidin-1-yl}-(2-methoxy-5-methyl-phenyl)-methanone], the Kb was found to be 0.165 µM.

Turning to `O=C(c1ccccc1C(F)(F)F)N1CC[C@@H](CNc2nc3ccc(Cl)cc3o2)C1` [Example 11, {(S)-3-[(6-Chloro-benzooxazol-2-ylamino)-methyl]-pyrrolidin-1-yl}-(2-trifluoromethyl-phenyl)-methanone], the Kb was found to be 0.726 µM.

As for `O=C(c1ccccc1OC(F)(F)F)N1CC[C@@H](CNc2nc3ccc(Cl)cc3o2)C1` [Example 12, {(S)-3-[(6-Chloro-benzooxazol-2-ylamino)-methyl]-pyrrolidin-1-yl}-(2-trifluoromethoxy-phenyl)-methanone], the Kb is 0.214 µM.

Take `O=C(c1ccccc1OC(F)(F)C(F)F)N1CC[C@@H](CNc2nc3ccc(Cl)cc3o2)C1` [Example 13, {(S)-3-[(6-Chloro-benzooxazol-2-ylamino)-methyl]-pyrrolidin-1-yl}-[2-(1,1,2,2-tetrafluoro-ethoxy)-phenyl]-methanone]: the Kb was determined as 0.149 µM.

The values are drawn from patent publication US8748430B2, “Pyrrolidin-3yl-methylamine quinoxaline derivatives” (Hoffmann-La Roche Inc, priority 2008, dated 2014).
